System: primary cortical neurons
Test: Measurement of neurite outgrowth in primary cortical neurons
Format: cell-based, mouse
Conditions: 5 μM Yoda1, imaging over 150 hours, versus vehicle
Protocol: Measurement of neurite outgrowth in primary cortical neurons. Primary cortical neuron cultures were prepared from mouse embryos of embryonic day 15. The cortices were dissected, and tissue dissociated with 0.0125% trypsin (for 15 min at 37° C., Sigma-Aldrich, St. Louis, Mo., USA). After trypsin inactivation and washing the cells were counted and plated on 48-well-plates (coated with poly-D-lysine, Sigma-Aldrich, St. Louis, Mo., USA) at a density of 125 000 cells/well or on 6-well-plates at a density of 1.8 million cells/well in Neurobasal media supplemented with 2% B27 and 500 μM L-glutamine (all ThermoFisher Scientific, Waltham, Mass., USA) and 10 μg/ml of gentamicin (Sigma Aldrich, St. Louis, Mo., USA). On day 3 or 5 in vitro (DIV) the neurons were fed by changing 50% of media. The neurons were placed in IncuCyte® S3 Live Cell Analysis System (Essen
BioScience Ltd., Hertfordshire, UK) on DIV 0 and treated with 5 μM Yoda1 (Tocris, Bio-Techne Ltd., Abingdon, Oxfordshire, UK) once on DIV 0 or daily until DIV 7, and images were taken every 8 hours for the analysis of neurite length and branch points.

## Clc1cccc(Cl)c1CSc1nnc(-c2cnccn2)s1 [Yoda1]
  branch points of neurites: more branching points
  neurite length: extended neurite length

From patent publication US20220265646A1, “PIEZO AGONISTS FOR PREVENTING OR REVERTING ABNORMAL AMYLOID DEPOSITION” (ITÄ-SUOMEN YLIOPISTO, priority 2019, published 2022)
